Values of other authors, collected in patent US20110268669A1, “COMPOSITION AND METHOD FOR TREATING EUSTACHIAN TUBE DYSFUNCTION” (priority 2010, published 2011).

Conditions: taken as a chewing gum

In the case of `OC[C@@H](O)[C@H](O)[C@@H](O)CO` [Xylitol], the “prevention of otitis media” value is listed as “shown to prevent otitis media”.
